# Results published in patent US20120252054A1, “SYSTEM FOR TRANSFORMATION OF THE CHLOROPLAST GENOME OF SCENEDESMUS SP. AND DUNALIELLA SP” (priority 2009, published 2012).
# How the values were obtained:
# Wildtype S. dimorphus = test: Plating on TAP agar containing 5-fluorocytosine, wild type; type: cell-based, Scenedesmus dimorphus; details: 1 mg/mL 5FC
# Method: To determine if functional codA is produced by transformed algae cells, cells were grown in TAP media to log phase, pelleted and resuspended to 10^8 cells/mL and plated onto TAP agar medium containing 1 mg/mL 5-fluorocytosine (5FC).
# To determine if functional codA is produced by transformed algae cells, cells were plated onto TAP agar medium containing 1 mg/mL 5-fluorocytosine (5FC).
# [1] = system: S. dimorphus transformants containing the codA transgene; test: Plating on TAP agar containing 5-fluorocytosine, codA transformants; type: cell-based, Scenedesmus dimorphus; details: 1 mg/mL 5FC
# Text: In this example, a nucleic acid encoding cytosine deaminase gene (codA) from E. coli was introduced into S. dimorphus. Transforming DNA is shown graphically in FIG. 23. In this instance the DNA segment labeled “codA cr” is the codA encoding gene (SEQ ID NO: 31, codA), the segment labeled “psbD” is the promoter and 5′ UTR for the psbD gene from S. dimorphus, the segment labeled “D1 3′” is the 3′ UTR for the psbA gene from S. dimorphus, and the segment labeled “CAT” is the chloramphenicol acetyl transferase gene (CAT) from E. coli, which is regulated by the promoter and 5′ UTR sequence for the tufA gene from S. dimorphus and the 3′ UTR sequence for the rbcL gene from S. dimorphus. The transgene expression cassette and selection marker are targeted to the S. dimorphus chloroplast genome via the segments labeled “Homology A” and “Homology B” which are approximately 1000 bp fragments homologous to sequences of DNA adjacent to nucleotide 071,366 (Site 1; nucleotide locations according to the sequence available from NCBI for S. obliquus, NC—008101) on the 5′ and 3′ sides, respectively. All DNA segments were cloned into pUC19. All DNA manipulations carried out in the construction of this transforming DNA were essentially as described by Sambrook et al., Molecular Cloning: A Laboratory Manual (Cold Spring Harbor Laboratory Press 1989) and Cohen et al., Meth. Enzymol. 297, 192-208, 1998. […]
# [2] = system: S. obliquus transformants containing the codA transgene; test: Plating on TAP agar containing 5-fluorocytosine, codA transformants of S. obliquus; type: cell-based, Scenedesmus obliquus; details: 1 mg/mL 5FC
# Text: In this example, a nucleic acid encoding cytosine deaminase gene (codA) from E. coli was introduced into S. obliquus. Transforming DNA is shown graphically in FIG. 23. In this instance the DNA segment labeled “codA cr” is the codA encoding gene (SEQ ID NO: 27, codA), the segment labeled “psbD” is the promoter and 5′ UTR for the psbD gene from S. dimorphus, the segment labeled “D1 3′” is the 3′ UTR for the psbA gene from […], and the segment labeled “CAT” is the chloramphenicol acetyl transferase gene (CAT) from E. coli, which is regulated by the promoter and 5′ UTR sequence for the tufA gene from S. dimorphus and the 3′ UTR sequence for the rbcL gene from S. dimorphus. The transgene expression cassette and selection marker are targeted to the S. obliquus chloroplast genome via the segments labeled “Homology A” and “Homology B” which are approximately 1000 bp fragments homologous to sequences of DNA adjacent to nucleotide 071,366 (Site 1; nucleotide locations according to the sequence available from NCBI for S. obliquus, NC—008101) on the 5′ and 3′ sides, respectively. All DNA segments were cloned into pUC19. All DNA manipulations carried out in the construction of this transforming DNA were essentially as described by Sambrook et al., Molecular Cloning: A Laboratory Manual (Cold Spring Harbor Laboratory Press 1989) and Cohen et al., Meth. Enzymol. 297, 192-208, 1998. […]
# wild type S. dimorphus = test: Growth in HSM with various concentrations of DCMU or atrazine, wild type; type: cell-based, Scenedesmus dimorphus; details: constant light 50-100 uE with CO2 enrichment, 4 days
# [3] = system: S. dimorphus DCMU transformants (CAT cassette); test: Patching of DCMU-selected CAT-cassette transformants onto TAP agar with chloramphenicol; type: cell-based, Scenedesmus dimorphus; details: TAP agar medium containing 25 μg/mL CAM
# Text: In order to determine if DCMU selection could result in incorporation of an expression cassette downstream of the psbA gene, A vector was constructed containing an expression cassette consisting of an endogenous promoter, a chloramphenicol acetyltransferase (CAT) gene, and an endogenous terminator cloned ˜500 bp downstream of the S264A/XbaI mutated psbA gene fragment from S. dimorphus and including the rpl20 gene. Transforming DNA is shown graphically in FIG. 4. In this instance the DNA segment labeled “CAT” is the chloramphenicol acetyl transferase gene from E. coli, the segment labeled “tufA” is the promoter and 5′ UTR sequence for the tufA gene from S. dimorphus, and the segment labeled “rbcL” is the 3′ UTR for the rbcL gene from S. dimorphus. The selection marker cassette is targeted to the S. dimorphus chloroplast genome via the segments labeled “Homology A2” and “Homology B2” which are 1000 bp fragments homologous to sequences of DNA adjacent to nucleotide 065,353 and include an S264A/XbaI mutated partial psbA coding sequence, its 3′UTR, and the rpl20 coding sequence. This vector targets integration of the selection marker cassette approximately 400 bp 3′ of the stop codon of the psbA gene.
# Transforming DNA was introduced into S. dimorphus via particle bombardment (as described in EXAMPLE 1) with DNA carried on 550 nm gold particles, @500 psi and a shooting distance of 4 cm. […]
smiles,measurement,setting,value
"Nc1nc(=O)[nH]cc1F [5FC, 5-fluorocytosine]",survival on TAP agar containing 5FC,Wildtype S. dimorphus,survived
same,survival on TAP agar containing 5FC,[1],do not
same,survival on TAP agar containing 5FC,[2],did not
CCNc1nc(Cl)nc(NC(C)C)n1 [Atrazine],concentration in which cells fail to grow,wild type S. dimorphus,0.5 µM
"O=C(N[C@H](CO)[C@H](O)c1ccc([N+](=O)[O-])cc1)C(Cl)Cl [CAM, chloramphenicol]",resistance of transformants to chloramphenicol,[3],resistant
"CN(C)C(=O)Nc1ccc(Cl)c(Cl)c1 [DCMU, 3-(3,4-Dichlorophenyl)-1,1-dimethylurea]",concentration in which cells fail to grow,wild type S. dimorphus,0.5 µM
